From patent US20230114728A1 (Venatorx Pharmaceuticals, Inc., priority 2019, published 2023)
Converted amounts (≈) assume the structure as drawn.

Experiments:
E. coli AG100 = assay: Broth microdilution MIC in CAMHB; format: cell-based; settings: Escherichia coli; E. coli AG100 (wild-type parent); MHB; read-out: Minimum Inhibitory Concentration, E. coli AG100
How it was run: (§1)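 MIC, read by eye, is the lowest compound concentration giving no bacterial growth after 16-20 h at 37° C. Test compounds are serially diluted 2-fold in CAMHB and seeded with 2-8×10^5 CFU/mL of bacteria taken from a 3-5 h shaking culture, following CLSI methods.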

[1] = system: K. pneumoniae SI-117 producing VIM-1; assay: Broth microdilution MIC in CAMHB; format: cell-based; settings: Klebsiella pneumoniae, read-out: Minimum Inhibitory Concentration, K. pneumoniae SI-117
How it was run: as §1

A. baumannii ATCC 19606 = assay: Broth microdilution MIC in CAMHB; format: cell-based; settings: Acinetobacter baumannii, ATCC19606; MHB; read-out: Minimum Inhibitory Concentration, A. baumannii ATCC 19606
How it was run: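 CLSI microdilution; CAMHB; inoculum 2-8×10^5 CFU/mL from 3-5 h 37° C culture; 2-fold compound series; 16-20 h, 37° C; MIC = lowest well without visible growth.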

E. coli AG100A = assay: Broth microdilution MIC in CAMHB; format: cell-based; settings: Escherichia coli, read-out: Minimum Inhibitory Concentration, E. coli AG100A
How it was run: as §1

E. coli ATCC 25922 = assay: Broth microdilution MIC in CAMHB; format: cell-based; settings: Escherichia coli, ATCC25922; E. coli ATCC 25922; MHB; read-out: Minimum Inhibitory Concentration, E. coli 25922
How it was run: as §1

[2] = system: K. pneumoniae UMM producing SHV-5 and KPC-2; assay: Broth microdilution MIC in CAMHB; format: cell-based; settings: Klebsiella pneumoniae, read-out: Minimum Inhibitory Concentration, K. pneumoniae UMM
How it was run: as §1

P. aeruginosa ATCC 27853 = assay: Broth microdilution MIC in CAMHB; format: cell-based; settings: Pseudomonas aeruginosa, ATCC27853; MHB; read-out: Minimum Inhibitory Concentration, P. aeruginosa ATCC 27853
How it was run: as §1

[3] = system: P. aeruginosa (ΔmexAB-oprM); assay: Broth microdilution MIC in CAMHB; format: cell-based; settings: Pseudomonas aeruginosa, read-out: Minimum Inhibitory Concentration, P. aeruginosa ΔmexAB-OprM
How it was run: as §1

E. coli K12 PBP3 = target: T1, E. coli K12 PBP3 (Escherichia coli, UniProt P0AD68); assay: biochemical; format: binding
T1 construct: made in house
How it was run: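 Fluorescence polarization (ex 490/em 520 nm) competition of inhibitors against Bocillin-FL at 0.1 μM, read up to 60 min. Final PBP levels: E. coli PBP3 1.5 μM; A. baumannii PBP2 2.5 μM, PBP3 0.2 μM in Tris pH 8.0/NaCl/glycerol/Tween 20; N. gonorrhoeae PBP2 […] in Hepes pH 8.0/NaCl/glycerol. EC50 = concentration halving PBP-bound Bocillin-FL.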

T1 sequence (P0AD68 1-577): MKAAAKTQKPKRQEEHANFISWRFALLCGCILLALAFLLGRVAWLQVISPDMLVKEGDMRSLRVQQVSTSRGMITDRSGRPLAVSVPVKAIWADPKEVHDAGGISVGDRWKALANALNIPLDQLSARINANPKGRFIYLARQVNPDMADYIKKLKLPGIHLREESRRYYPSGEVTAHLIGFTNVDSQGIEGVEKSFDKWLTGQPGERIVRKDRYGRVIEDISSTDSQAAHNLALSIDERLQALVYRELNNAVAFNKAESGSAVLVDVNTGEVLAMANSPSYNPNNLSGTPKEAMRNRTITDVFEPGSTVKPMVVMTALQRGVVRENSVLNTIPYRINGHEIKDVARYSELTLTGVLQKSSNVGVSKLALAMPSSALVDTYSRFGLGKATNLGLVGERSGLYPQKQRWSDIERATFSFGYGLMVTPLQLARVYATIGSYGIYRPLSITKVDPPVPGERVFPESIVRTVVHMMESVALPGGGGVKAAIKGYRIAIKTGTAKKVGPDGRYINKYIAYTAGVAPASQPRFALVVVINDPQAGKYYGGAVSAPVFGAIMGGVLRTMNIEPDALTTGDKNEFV

SMILES	MIC (E. coli AG100) [µg/mL]	MIC [1] [µg/mL]	MIC (A. baumannii ATCC 19606) [µg/mL]	MIC (E. coli AG100A) [µg/mL]	MIC (E. coli ATCC 25922) [µg/mL]	MIC [2] [µg/mL]	MIC (P. aeruginosa ATCC 27853) [µg/mL]	MIC [3] [µg/mL]	EC50 (E. coli K12 PBP3) [µM]
CCN1CCN(C(=O)NC(C(=O)N[C@H]2Cc3cccc(C(=O)O)c3OB2O)c2ccc(O)c(Cl)c2F)C(=O)C1=O (stereo partly drawn) [Example 185, (3R)-3-(2-(3-chloro-2-fluoro-4-hydroxyphenyl)-2-(4-ethyl-2,3-dioxopiperazine-1-carboxamido)acetamido)-2-hydroxy-3,4-dihydro-2H-benzo[e][1,2]oxaborinine-8-carboxylic acid]	32 to 64 (≈ 55.5 to 111 µM)	32 to 64 (≈ 55.5 to 111 µM)	> 128	2 to 4 (≈ 3.47 to 6.94 µM)	32 to 64 (≈ 55.5 to 111 µM)	32 to 64 (≈ 55.5 to 111 µM)	> 128	2 to 4 (≈ 3.47 to 6.94 µM)	< 30
NCCCN1CCN(C(=O)NC(C(=O)N[C@H]2Cc3cccc(C(=O)O)c3OB2O)c2c(F)cc(O)cc2F)C(=O)C1=O (stereo partly drawn) [Example 183, (3R)-3-(2-(4-(3-aminopropyl)-2,3-dioxopiperazine-1-carboxamido)-2-(2,6-difluoro-4-hydroxyphenyl)acetamido)-2-hydroxy-3,4-dihydro-2H-benzo[e][1,2]oxaborinine-8-carboxylic acid]	8 to 16 (≈ 13.6 to 27.2 µM)	32 to 64 (≈ 54.3 to 109 µM)	> 128	2 to 4 (≈ 3.39 to 6.79 µM)	8 to 16 (≈ 13.6 to 27.2 µM)	8 to 16 (≈ 13.6 to 27.2 µM)	> 128	8 to 16 (≈ 13.6 to 27.2 µM)	< 30
NCCN1CCN(C(=O)N[C@H](C(=O)N[C@H]2Cc3cccc(C(=O)O)c3OB2O)c2ccc(O)c([N+](=O)[O-])c2)C(=O)C1=O (single isomer, unassigned) [Example 200]	> 128	> 128	> 128	32 to 64 (≈ 54.8 to 110 µM)	> 128	> 128	> 128	> 128	> 500
CCN1CCN(C(=O)NC(C(=O)N[C@H]2Cc3cccc(C(=O)O)c3OB2O)c2ccc(C(=O)O)c(Cl)c2Cl)C(=O)C1=O (stereo partly drawn) [Example 201, (3R)-3-(2-(4-carboxy-2,3-dichlorophenyl)-2-(4-ethyl-2,3-dioxopiperazine-1-carboxamido)acetamido)-2-hydroxy-3,4-dihydro-2H-benzo[e][1,2]oxaborinine-8-carboxylic acid]	> 128	> 128	> 128	32 to 64 (≈ 51.5 to 103 µM)	> 128	> 128	> 128	8 to 16 (≈ 12.9 to 25.8 µM)	< 30
CCN1CCN(C(=O)N[C@@H](C(=O)N[C@H]2Cc3cccc(C(=O)O)c3OB2O)c2ccc(C(=O)O)c(F)c2Cl)C(=O)C1=O (single isomer, unassigned) [Example 203]	32 to 64 (≈ 52.9 to 106 µM)	> 128	> 128	8 to 16 (≈ 13.2 to 26.5 µM)	> 128	32 to 64 (≈ 52.9 to 106 µM)	> 128	8 to 16 (≈ 13.2 to 26.5 µM)	< 30
CS(=O)(=O)N1CCN(C(=O)N[C@@H](C(=O)N[C@H]2Cc3ccc(F)c(C(=O)O)c3OB2O)c2cc(F)c(O)c(O)c2Cl)C1=O (single isomer, unassigned) [Example 189]	8 to 16 (≈ 12.6 to 25.3 µM)	8 to 16 (≈ 12.6 to 25.3 µM)	0.5 to 1 (≈ 0.79 to 1.58 µM)	2 to 4 (≈ 3.16 to 6.32 µM)	2 to 4 (≈ 3.16 to 6.32 µM)	> 128	2 to 4 (≈ 3.16 to 6.32 µM)	8 to 16 (≈ 12.6 to 25.3 µM)	< 30
CCN1CCN(C(=O)N[C@@H](C(=O)N[C@H]2Cc3cccc(C(=O)O)c3OB2O)c2c(O)cc(O)cc2F)C(=O)C1=O (single isomer, unassigned) [Example 182]	8 to 16 (≈ 14.3 to 28.7 µM)	32 to 64 (≈ 57.3 to 115 µM)	32 to 64 (≈ 57.3 to 115 µM)	0.5 to 1 (≈ 0.896 to 1.79 µM)	8 to 16 (≈ 14.3 to 28.7 µM)	8 to 16 (≈ 14.3 to 28.7 µM)	> 128	8 to 16 (≈ 14.3 to 28.7 µM)	< 30
